Experimental data: PMC7785020, “A unique hormonal recognition feature of the human glucagon-like peptide-2 receptor” (Cell Research, 2020)
Where a chain is given by its changes, count along the chain named. Like-named read-outs stand apart in the source and are kept apart here. No end group written: not given here.

Assays:
Format in all cases: cell-based
GLP-1R (WT) = GLP-1R (WT) (Homo sapiens, UniProt P43220); assay: cAMP accumulation, WT GLP-1R; design: expressed in transfected cells; host or cells: HEK 293T; settings: Table S5, GLP-1R (WT), HEK 293T, 30 min, RT, mean ± SEM, n ≥ 3 in duplicate; for EC50: read-out: cAMP pEC50 (converted)
GLP-1R (WT), sequence (P43220 24-463, species assumed): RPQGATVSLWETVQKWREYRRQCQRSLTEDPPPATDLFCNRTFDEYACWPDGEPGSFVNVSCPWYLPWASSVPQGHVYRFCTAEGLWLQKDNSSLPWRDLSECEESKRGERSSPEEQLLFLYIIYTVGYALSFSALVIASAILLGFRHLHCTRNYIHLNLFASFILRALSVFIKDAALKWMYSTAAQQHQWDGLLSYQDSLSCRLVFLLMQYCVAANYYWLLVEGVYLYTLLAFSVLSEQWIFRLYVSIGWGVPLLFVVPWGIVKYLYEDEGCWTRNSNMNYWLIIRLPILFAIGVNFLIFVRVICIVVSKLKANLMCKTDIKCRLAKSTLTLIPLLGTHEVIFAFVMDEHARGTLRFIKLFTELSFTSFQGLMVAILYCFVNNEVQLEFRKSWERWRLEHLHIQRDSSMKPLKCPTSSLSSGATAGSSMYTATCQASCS

GLP-2R N247^ECL1A = target: T1, GLP-2R N247^ECL1A (Homo sapiens, UniProt O95838, N247A); assay: cAMP accumulation, N247^ECL1A; design: WT (1–553); expressed in transfected cells; HEK 293T (cAMP); settings: Table S5, N247A, HEK 293T, 30 min, RT, mean ± SEM, n ≥ 3 in duplicate; for Emax: read-out: cAMP Emax (% WT); for EC50: read-out: cAMP pEC50 (converted)
T1 sequence (O95838 1-553 N247A): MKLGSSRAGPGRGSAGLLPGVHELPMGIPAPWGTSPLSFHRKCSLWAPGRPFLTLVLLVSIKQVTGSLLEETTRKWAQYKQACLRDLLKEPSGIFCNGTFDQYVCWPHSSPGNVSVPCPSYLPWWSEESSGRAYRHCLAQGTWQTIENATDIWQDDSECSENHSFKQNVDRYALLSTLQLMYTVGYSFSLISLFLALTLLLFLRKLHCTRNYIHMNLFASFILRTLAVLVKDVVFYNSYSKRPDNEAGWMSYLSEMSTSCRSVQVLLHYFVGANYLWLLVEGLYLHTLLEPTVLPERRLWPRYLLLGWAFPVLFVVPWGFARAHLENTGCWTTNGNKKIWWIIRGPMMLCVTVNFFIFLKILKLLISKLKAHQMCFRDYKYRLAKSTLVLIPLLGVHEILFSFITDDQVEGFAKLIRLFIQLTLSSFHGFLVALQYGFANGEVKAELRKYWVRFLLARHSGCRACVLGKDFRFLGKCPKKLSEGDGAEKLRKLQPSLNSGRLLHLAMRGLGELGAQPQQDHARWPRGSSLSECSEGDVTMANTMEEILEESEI
Method: (§1) HEK 293T cells were cultured in Dulbecco’s Modified Eagle’s Medium (DMEM) (Gibco, Waltham, USA) supplemented with 10% (v/v) fetal bovine serum (FBS) (Gibco) and 1% (v/v) sodium pyruvate (Gibco) at 37 °C, 5% CO2 in a humidified incubator. They were seeded onto 6-well cell culture plates and transiently transfected with different GLP-2R constructs using Lipofectamine 2000 transfection reagent (Invitrogen, Carlsbad, CA, USA). After 24 h, the transfected cells were seeded onto 384-well microtiter plates (3000 cells per well) in HBSS supplemented with 5 mM HEPES, 0.1% (w/v) bovine serum albumin (BSA) and 0.5 mM 3-isobutyl-1- methylxanthine, and stimulated with increasing concentrations of GLP-2 for 30 min at RT. Eu and Ulight were diluted by cAMP detection buffer and added to the plates separately to terminate the reaction. Plates were incubated at RT for 60 min before measuring the fluorescence intensity at 620 nm and […] by an EnVision multilabel plate reader (PerkinElmer, Boston, USA).

GLP-2R D244^ECL1A = target: T2, GLP-2R D244^ECL1A (Homo sapiens, UniProt O95838, D244A); assay: cAMP accumulation, D244^ECL1A; design: WT (1–553); expressed in transfected cells; HEK 293T (cAMP); settings: Table S5, D244A, HEK 293T, 30 min, RT, mean ± SEM, n ≥ 3 in duplicate; for Emax: read-out: cAMP Emax (% WT); for EC50: read-out: cAMP pEC50 (converted)
T2 sequence (O95838 1-553 D244A): T1 sequence (O95838 1-553 N247A) with D244A, A247N
Method: as §1

GLP-2R R242^ECL1A = target: T3, GLP-2R R242^ECL1A (Homo sapiens, UniProt O95838, R242A); assay: cAMP accumulation, R242^ECL1A; design: WT (1–553); expressed in transfected cells; HEK 293T (cAMP); settings: 30 min, RT, mean ± SEM, n ≥ 3 in duplicate; for Emax: HEK-293T, read-out: cAMP Emax (% WT); for EC50: HEK 293T, read-out: cAMP pEC50 (converted)
T3 sequence (O95838 1-553 R242A): T1 sequence (O95838 1-553 N247A) with R242A, A247N
Method: as §1

CC[C@H](C)[C@H](NC(=O)[C@H](Cc1ccccc1)NC(=O)[C@H](CC(=O)O)NC(=O)[C@H](CCCNC(=N)N)NC(=O)[C@H](C)NC(=O)[C@H](C)NC(=O)[C@H](CC(C)C)NC(=O)[C@H](CC(N)=O)NC(=O)[C@H](CC(=O)O)NC(=O)[C@H](CC(C)C)NC(=O)[C@@H](NC(=O)[C@@H](NC(=O)[C@H](CC(N)=O)NC(=O)[C@H](CCSC)NC(=O)[C@H](CCC(=O)O)NC(=O)[C@H](CC(=O)O)NC(=O)[C@H](CO)NC(=O)[C@H](Cc1ccccc1)NC(=O)[C@H](CO)NC(=O)CNC(=O)[C@H](CC(=O)O)NC(=O)[C@H](C)NC(=O)[C@@H](N)Cc1c[nH]cn1)[C@@H](C)O)[C@@H](C)CC)C(=O)N[C@@H](CC(N)=O)C(=O)N[C@@H](Cc1c[nH]c2ccccc12)C(=O)N[C@@H](CC(C)C)C(=O)N[C@H](C(=O)N[C@@H](CCC(N)=O)C(=O)N[C@H](C(=O)N[C@@H](CCCCN)C(=O)N[C@H](C(=O)N[C@H](C(=O)N[C@@H](CC(=O)O)C(=O)O)[C@@H](C)O)[C@@H](C)CC)[C@@H](C)O)[C@@H](C)CC [Human GLP-2 (1–33)]
Emax (GLP-1R (WT)): 4 ± 3.1% | EC50 (GLP-1R (WT)): 5.01 nM | Emax (GLP-2R N247^ECL1A): 103 ± 1.8% | Emax (GLP-2R D244^ECL1A): 101 ± 2.8% | Emax (GLP-2R R242^ECL1A; Table S3, R242A): 107 ± 3.4% | Emax (GLP-2R R242^ECL1A; Table S5, R242A): 104 ± 2.3%

HADGSFSDEMNTILDNLAAKEFIAWLVKGRG [Chimeric GLP-1/GLP-2 (20-33)]
Emax (GLP-1R (WT)): 112 ± 2.8% | EC50 (GLP-1R (WT)): 3.16 nM | Emax (GLP-2R N247^ECL1A): 103 ± 1.8% | EC50 (GLP-2R N247^ECL1A): 0.0501 nM | Emax (GLP-2R D244^ECL1A): 104 ± 1.8% | EC50 (GLP-2R D244^ECL1A): 0.251 nM | Emax (GLP-2R R242^ECL1A; Table S5, R242A): 102 ± 3.1% | EC50 (GLP-2R R242^ECL1A; Table S5, R242A): 1.26 nM

HADGSFTSDVSSYLEGQAARDFINWLIQTKITD [Chimeric GLP-1/GLP-2 (7-19)]
Emax (GLP-1R (WT)): 105 ± 2.4% | EC50 (GLP-1R (WT)): 0.0126 nM | Emax (GLP-2R N247^ECL1A): 102 ± 2.8% | EC50 (GLP-2R N247^ECL1A): 1.26 nM | Emax (GLP-2R D244^ECL1A): 102 ± 1.8% | EC50 (GLP-2R D244^ECL1A): 3.16 nM | Emax (GLP-2R R242^ECL1A; Table S5, R242A): 106 ± 4.9% | EC50 (GLP-2R R242^ECL1A; Table S5, R242A): 25.1 nM

HAEGTFSDEMNTILDNLAARDFINWLIQTKITD [Chimeric GLP-1/GLP-2 (1-6)]
Emax (GLP-1R (WT)): 7.1 ± 3.2% | EC50 (GLP-1R (WT)): 7.94 nM | Emax (GLP-2R N247^ECL1A): 102 ± 1.8% | EC50 (GLP-2R N247^ECL1A): 0.0398 nM | Emax (GLP-2R D244^ECL1A): 102 ± 2.5% | EC50 (GLP-2R D244^ECL1A): 0.251 nM | Emax (GLP-2R R242^ECL1A; Table S5, R242A): 105 ± 3.2% | EC50 (GLP-2R R242^ECL1A; Table S5, R242A): 7.94 nM
